Reference: article PMC8857812 (BMC Complementary Medicine and Therapies, 2022)

Experiments:
Type in all cases: in vitro ADME
CYP3A4 [1] = molecular target: T1, CYP3A4 (Homo sapiens, UniProt P08684); test: Time-dependent inhibition and inactivation kinetics of CYP3A4 in HLMs
T1 construct: tissue PrimeTox M10000.201800; host or cells: pooled human liver microsomes (50 donors)
Method: (§1) After the first incubation, an aliquot (20 μL) was transferred to another incubation tube, added probe substrates and start the reaction by an NADPH-generating system. After incubation for 0, 5, 10, 15, and 30 min, the corresponding metabolites were determined by HPLC-MS.
CYPs time-dependent inhibition: Kobs=KinactI/KI+I

CYP3A4 [2] = molecular target: T1, CYP3A4; test: CYP3A4 inhibition in HLMs, testosterone 6β-hydroxylation probe reaction; conditions: 100 μM ECH, p < 0.001 vs Control
Method: (§2) Eight positive controls were used for different CYPs: 10 μM furafylline for CYP1A2, 50 μM clomethiazole for CYP2E1, 50 μM tranylcypromine for CYP2C19, 1 μM ketoconazole for CYP3A4, 10 μM tranylcypromine for CYP2A6, 5 μM montelukast for CYP2C8, 10 μM sulfaphenazole for CYP2C9, and 10 μM quinidine for CYP2D6. […] The reaction was initiated by adding a newly prepared NADPH generating system, maintained at 37 °C for 30 min, and then terminated by the addition of acetonitrile. The incubation conditions were optimized to assure that the reaction was linear with time and protein concentration. Blank HLMs were incubated as Control. The supernatant was obtained after centrifugation at 14000 r/min, 15 min for LC-MS analysis.
(§3) The quantification for the corresponding metabolites was performed using a validated single LC/MS/MS run at an Ultimate 3000 HPLC system and a TSQ Quantis™ triple quadrupole mass spectrometer equipped with a heated electrospray ionization (ESI) source (Thermo Fisher, USA). […]
(§4) The relative enzyme activity was observed by High-Performance Liquid Chromatography (HPLC)-Mass Spectrometry (MS). IC50 values were calculated by Graphpad Prism 7.

CYP2C19 [3] = molecular target: T2, CYP2C19 (Homo sapiens, UniProt P33261); test: Inhibition kinetics of CYP2C19 in HLMs (Lineweaver-Burk plots)
T2 construct: tissue PrimeTox M10000.201800; host or cells: pooled human liver microsomes (50 donors)
Source text: (§5) A one enzyme Michaelis Menten model with competitive substrate inhibition: V=VmaxS/Km1+I/KI+Sa
(§6) Michaelis-Menten model with uncompetitive substrate inhibition: V=VmaxS/Km+S1+I/KIKi

CYP2E1 [4] = molecular target: T3, CYP2E1 (Homo sapiens, UniProt P05181); test: CYP2E1 inhibition in HLMs, chlorzoxazone 6-hydroxylation probe reaction; conditions: 100 μM ECH, p < 0.001 vs Control
T3 construct: tissue PrimeTox M10000.201800; host or cells: pooled human liver microsomes (50 donors)
Method: as §2, §3, §4

CYP2D6 = molecular target: T4, CYP2D6 (Homo sapiens, UniProt P10635); test: CYP2D6 inhibition in HLMs, dextromethorphan O-demethylation probe reaction; conditions: HLM; even in 100 μM concentrations
T4 construct: Phenotyping experiments were conducted by probe reactions of eight HLMs CYPs; tissue PrimeTox M10000.201800; host or cells: pooled human liver microsomes (50 donors)
Method: as §2
(§7) The quantification for the corresponding metabolites was performed using a validated single LC/MS/MS run at an Ultimate 3000 HPLC system and a TSQ Quantis™ triple quadrupole mass spectrometer equipped with a heated electrospray ionization (ESI) source (Thermo Fisher, USA). The mobile phase was consisted of solvent A (0.01% acetic acid and 5 mmol/L ammonium acetate) and solvent B (methanol-acetonitrile,1:1, v/v) according to the following gradient: 0-0.5 min, B 2%; 0.5-4.0 min, B 2 to 45%; 4.0-6.5 min, B 45 to 60%; 6.5-6.8 min, B 60 to 80%; 6.8-7.2 min, B 80%; 7.2-7.5 min, B 80 to 2%; 7.5-10.0 min, B 2%. […]

CYP2E1 [5] = molecular target: T3, CYP2E1; test: Assessment of time-dependent inhibition of CYP2E1 in HLMs; conditions: 20 μM ECH; incubation 0-30 min
Method: as §1

CYP2E1 [6] = molecular target: T3, CYP2E1; test: Inhibition kinetics of CYP2E1 in HLMs (Lineweaver-Burk plots)
Source text: as §5, §6

CYP2C9 = molecular target: T5, CYP2C9 (Homo sapiens, UniProt P11712); test: CYP2C9 inhibition in HLMs, diclofenac 4′-hydroxylation probe reaction; conditions: HLM; even in 100 μM concentrations
T5 construct: Phenotyping experiments were conducted by probe reactions of eight HLMs CYPs; tissue PrimeTox M10000.201800; host or cells: pooled human liver microsomes (50 donors)
Method: as §2, §7

CYP2C19 [7] = molecular target: T2, CYP2C19; test: Assessment of time-dependent inhibition of CYP2C19 in HLMs; conditions: 10 μM ECH; incubation 0-30 min
Method: as §1

CYP2A6 = molecular target: T6, CYP2A6 (Homo sapiens, UniProt P11509); test: CYP2A6 inhibition in HLMs, coumarin 7-hydroxylation probe reaction; conditions: HLM; even in 100 μM concentrations
T6 construct: tissue PrimeTox M10000.201800; host or cells: pooled human liver microsomes (50 donors)
Method: as §2, §7

CYP2C19 [8] = molecular target: T2, CYP2C19; test: CYP2C19 inhibition in HLMs, S-mephenytoin 4-hydroxylation probe reaction; conditions: 100 μM ECH, p < 0.001 vs Control
Method: as §2, §3, §4

[9] = pre-incubation 0-30 min, ECH 0-50 μM, estimated from curve fitting of Kobs

T1 sequence (P08684 whole entry): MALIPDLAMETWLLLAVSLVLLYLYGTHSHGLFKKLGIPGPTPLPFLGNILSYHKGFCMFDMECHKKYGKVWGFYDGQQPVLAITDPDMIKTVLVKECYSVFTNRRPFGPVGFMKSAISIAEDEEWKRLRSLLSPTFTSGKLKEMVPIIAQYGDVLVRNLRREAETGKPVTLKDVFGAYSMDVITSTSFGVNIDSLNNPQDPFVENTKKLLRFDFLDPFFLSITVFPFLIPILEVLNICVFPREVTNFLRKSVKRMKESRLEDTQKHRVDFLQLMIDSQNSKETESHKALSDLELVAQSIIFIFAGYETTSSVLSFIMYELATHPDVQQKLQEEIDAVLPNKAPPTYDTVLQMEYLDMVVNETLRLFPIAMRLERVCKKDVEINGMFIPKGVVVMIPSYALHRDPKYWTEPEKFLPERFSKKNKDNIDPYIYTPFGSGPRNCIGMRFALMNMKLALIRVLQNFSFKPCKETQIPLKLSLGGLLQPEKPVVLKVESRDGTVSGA
T3 sequence (P05181 whole entry): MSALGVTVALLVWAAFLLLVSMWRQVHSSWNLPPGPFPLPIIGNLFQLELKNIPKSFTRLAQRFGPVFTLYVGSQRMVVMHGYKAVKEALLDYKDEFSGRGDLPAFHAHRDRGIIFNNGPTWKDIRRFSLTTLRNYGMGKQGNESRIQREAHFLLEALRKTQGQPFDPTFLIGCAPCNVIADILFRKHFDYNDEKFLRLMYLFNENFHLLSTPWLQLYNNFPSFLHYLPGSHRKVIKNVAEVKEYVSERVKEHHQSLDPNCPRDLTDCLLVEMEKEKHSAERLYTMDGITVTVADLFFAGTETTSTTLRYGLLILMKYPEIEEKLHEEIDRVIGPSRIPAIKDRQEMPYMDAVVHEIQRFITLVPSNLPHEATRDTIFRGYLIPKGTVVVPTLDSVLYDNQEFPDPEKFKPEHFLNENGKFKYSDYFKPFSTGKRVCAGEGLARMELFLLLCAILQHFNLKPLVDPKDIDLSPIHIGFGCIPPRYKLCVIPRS
T2 sequence (P33261 whole entry): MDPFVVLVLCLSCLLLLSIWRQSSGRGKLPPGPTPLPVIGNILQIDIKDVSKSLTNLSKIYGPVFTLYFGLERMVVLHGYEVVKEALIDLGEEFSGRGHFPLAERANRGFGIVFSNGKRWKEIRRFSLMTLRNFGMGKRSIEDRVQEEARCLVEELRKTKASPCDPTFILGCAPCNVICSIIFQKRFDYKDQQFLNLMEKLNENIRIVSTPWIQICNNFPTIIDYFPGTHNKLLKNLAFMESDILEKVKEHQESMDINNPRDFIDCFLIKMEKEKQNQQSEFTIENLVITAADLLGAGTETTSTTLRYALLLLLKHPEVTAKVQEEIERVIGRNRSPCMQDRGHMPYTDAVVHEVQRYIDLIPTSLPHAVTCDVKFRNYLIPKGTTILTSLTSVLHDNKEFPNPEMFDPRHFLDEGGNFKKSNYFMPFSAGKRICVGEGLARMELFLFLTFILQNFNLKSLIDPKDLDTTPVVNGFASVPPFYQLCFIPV
T6 sequence (P11509 whole entry): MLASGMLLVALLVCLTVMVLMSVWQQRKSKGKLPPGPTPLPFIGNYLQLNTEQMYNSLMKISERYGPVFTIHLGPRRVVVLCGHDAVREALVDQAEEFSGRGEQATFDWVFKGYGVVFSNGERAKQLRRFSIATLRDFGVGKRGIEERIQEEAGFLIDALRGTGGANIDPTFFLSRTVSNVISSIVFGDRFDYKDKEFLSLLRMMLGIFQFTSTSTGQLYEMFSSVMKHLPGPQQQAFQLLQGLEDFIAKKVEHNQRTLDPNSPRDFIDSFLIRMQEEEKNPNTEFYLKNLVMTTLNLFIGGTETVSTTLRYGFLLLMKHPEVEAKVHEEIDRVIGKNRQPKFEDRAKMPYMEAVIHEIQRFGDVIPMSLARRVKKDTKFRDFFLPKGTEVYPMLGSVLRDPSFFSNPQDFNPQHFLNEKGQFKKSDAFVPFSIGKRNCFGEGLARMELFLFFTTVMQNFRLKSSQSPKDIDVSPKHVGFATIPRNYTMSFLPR
T4 sequence (P10635 whole entry): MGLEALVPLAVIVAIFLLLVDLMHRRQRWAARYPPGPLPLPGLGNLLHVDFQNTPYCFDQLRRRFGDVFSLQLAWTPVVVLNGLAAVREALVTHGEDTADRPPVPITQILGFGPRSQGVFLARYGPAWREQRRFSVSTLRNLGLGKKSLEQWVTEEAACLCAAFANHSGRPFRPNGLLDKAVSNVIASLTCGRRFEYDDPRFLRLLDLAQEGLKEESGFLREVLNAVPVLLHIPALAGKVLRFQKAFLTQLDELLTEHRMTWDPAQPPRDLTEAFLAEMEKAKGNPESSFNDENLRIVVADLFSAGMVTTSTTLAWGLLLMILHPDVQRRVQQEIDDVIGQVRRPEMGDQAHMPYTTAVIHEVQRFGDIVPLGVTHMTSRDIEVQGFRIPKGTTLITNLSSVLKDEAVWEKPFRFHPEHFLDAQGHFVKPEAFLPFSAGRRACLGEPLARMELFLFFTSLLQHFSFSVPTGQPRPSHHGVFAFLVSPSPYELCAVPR
T5 sequence (P11712 whole entry): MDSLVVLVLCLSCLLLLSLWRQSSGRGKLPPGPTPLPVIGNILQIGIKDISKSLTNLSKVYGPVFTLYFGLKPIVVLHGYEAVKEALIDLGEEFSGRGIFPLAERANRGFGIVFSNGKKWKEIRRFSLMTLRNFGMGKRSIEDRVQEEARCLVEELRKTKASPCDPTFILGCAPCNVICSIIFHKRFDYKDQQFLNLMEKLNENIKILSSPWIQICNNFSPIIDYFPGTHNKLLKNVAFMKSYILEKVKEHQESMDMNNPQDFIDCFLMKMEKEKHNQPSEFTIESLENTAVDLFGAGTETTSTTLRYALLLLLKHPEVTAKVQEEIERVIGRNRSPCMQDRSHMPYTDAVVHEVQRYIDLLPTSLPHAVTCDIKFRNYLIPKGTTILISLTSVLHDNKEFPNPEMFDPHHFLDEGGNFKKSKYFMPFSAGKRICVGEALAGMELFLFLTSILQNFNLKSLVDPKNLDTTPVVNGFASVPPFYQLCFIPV

Echinacoside
time dependence of CYP3A4 inhibition (CYP3A4 [1]; 50 μM ECH, incubation 0-30 min): time-dependent
KI (time-dependent inhibition of CYP3A4) (CYP3A4 [1]; [9]): 6.63 µM
Kinact (time-dependent inhibition of CYP3A4) (CYP3A4 [1]; [9]): 0.066 min^− 1
effect on relative activity of CYP3A4 (CYP3A4 [2]): significant decrease
mode of inhibition of CYP2C19 (CYP2C19 [3]): competitive type
effect on relative activity of CYP2E1 (CYP2E1 [4]): significant decrease
inhibition of CYP2D6 (CYP2D6): no significant inhibition
time dependence of CYP2E1 inhibition (CYP2E1 [5]): time-independent
α value for CYP2E1 (CYP2E1 [6]): not 1
mode of inhibition of CYP2E1 (CYP2E1 [6]; Lineweaver-Burk plots): mixed type
inhibition of CYP2C9 (CYP2C9): no significant inhibition
time dependence of CYP2C19 inhibition (CYP2C19 [7]): time-independent
inhibition of CYP2A6 (CYP2A6): no significant inhibition
effect on relative activity of CYP2C19 (CYP2C19 [8]): significant decrease
